# Measurements published in patent US6737383B1, “Herbicidal oxadiazolidines” (priority 1999, dated 2004).
# Assays:
# redroot pigweed [1] = assay: Test E redroot pigweed; type: in vivo, Amaranthus retroflexus; settings: Preemergence
# redroot pigweed [2] = assay: Test E redroot pigweed; type: in vivo, Amaranthus retroflexus; settings: Postemergence
# Procedure, shortened: (§1)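 Plants were grown under normal greenhouse practice; for postemergence, in sandy loam soil mixed 60:40 with potting mix, treated at the 1- to 4-leaf stage. The compound was in a non-phytotoxic solvent carrying a surfactant. After roughly 21 to 28 days plants were scored visually against untreated plants.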
# wild mustard = assay: Test E wild mustard; type: in vivo, Sinapis arvensis; settings: Preemergence
# downy brome = assay: Test E downy brome; type: in vivo, Bromus tectorum; settings: Postemergence; for Plant response rating, Downy brome: 0 to 100 scale
# Experimental: (§2) Compounds evaluated in this test were formulated in a non-phytotoxic solvent mixture which included a surfactant and applied to plants that were in the 1- to 4-leaf stage (postemergence application). A mixture of sandy loam soil and greenhouse potting mix in a 60:40 ratio was used for the postemergence test.
# (§3) Plantings of these crops and weed species were adjusted to produce plants of appropriate size for the postemergence test. All plant species were grown using normal greenhouse practices. Crop and weed species include annual bluegrass (Poa annua), blackgrass (Alopecurus myosuroides), black nightshade (Solanum nigra), chickweed (Stellaria media), common poppy (Papaver rhoeas), deadnettle (Lamium amplexicaule), downy brome (Bromus tectorum), field violet (Viola arvensis), galium (Galium aparine), green foxtail (Setaria viridis), Italian ryegrass (Lolium multiflorum), jointed goatgrass (Aegilops cylindrica), kochia (Kochia scoparia), lambsquarters (Chenopodium album), littleseed canarygrass (Phalaris minor), rape (Brassica napus), redroot pigweed (Amaranthus retroflexus), Russian thistle (Salsola kali), scentless chamomile (Matricaria inodora), spring barley (Hordeum vulgare), sugar beet (Beta vulgaris), sunflower (Helianthus annuus), ivyleaf speedwell (Veronica hederaefolia), spring wheat (Triticum aestivum), winter wheat (Triticum aestivum), wild buckwheat (Polygonum convolvulus), wild mustard (Sinapis arvensis), wild oat (Avena fatua), windgrass (Apera spica-venti) and winter barley (Hordeum vulgare).
# (§4) Treated plants and untreated controls were maintained in a greenhouse for approximately 21 to 28 days, after which all treated plants were compared to untreated controls and visually evaluated. […] A dash response (-) means no test result.
# green foxtail = assay: Test E green foxtail; type: in vivo, Setaria viridis; settings: Postemergence
# Experimental: as §2, §3, §4
# Russian thistle = assay: Test E Russian thistle; type: in vivo, Salsola kali; settings: Postemergence
# Procedure, shortened: as §1
# wild oat = assay: Test E wild oat; type: in vivo, Avena fatua; settings: Postemergence
# Procedure, shortened: as §1
# Italian ryegrass = assay: Test E Italian ryegrass; type: in vivo, Lolium multiflorum; settings: Postemergence
# Procedure, shortened: as §1
# galium = assay: Test E galium; type: in vivo, Galium aparine; settings: Preemergence
# lambsquarters = assay: Test E lambsquarters; type: in vivo, Chenopodium album; settings: Preemergence
# kochia = assay: Test E kochia; type: in vivo, Kochia scoparia; settings: Preemergence
# spring wheat = assay: Test E spring wheat; type: in vivo, Triticum aestivum; settings: Preemergence
# littleseed canarygrass = assay: Test E littleseed canarygrass; type: in vivo, Phalaris minor; settings: Postemergence
# Procedure, shortened: as §1
# hairy beggarticks = assay: Test C postemergence hairy beggarticks; type: in vivo, Bidens pilosa; settings: 0 to 100 scale, 0 no effect, 100 complete control
# Procedure, shortened: (§5)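 Activity is expressed as percent-style visual control, 0 (no effect) to 100 (complete control), assessed approximately 14 to 21 days after application, relative to untreated plants. Application was postemergence, using a non-phytotoxic solvent formulation with surfactant.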
# wild poinsettia = assay: Test C postemergence wild poinsettia; type: in vivo, Euphorbia heterophylla; settings: 0 to 100 scale, 0 no effect, 100 complete control
# Experimental: as §2, with “grown for various periods of time before treatment” for “in the 1- to 4-leaf stage”
# (§6) Plantings of these crops and weed species were adjusted to produce plants of appropriate size for the postemergence test. All plant species were grown using normal greenhouse practices. Crop and weed species include arrowleaf sida (Sida rhombifolia), barnyardgrass (Echinochloa crus-galli), cocklebur (Xanthium strumarium), common ragweed (Ambrosia elatior), corn (Zea mays), cotton (Gossypium hirsutum), eastern black nightshade (Solanum ptycanthum), fall panicum (Panicum dichotomiflorum), field bindweed (Convolvulus arvensis), giant foxtail (Setaria faberii), hairy beggarticks (Bidens pilosa), ivyleaf morningglory (Ipomoea hederacea), johnsongrass (Sorghum halepense), ladysthumb smartweed (Polygonum persicaria), lambsquarters (Chenopodium album), large crabgrass (Digitaria sanguinalis), purple nutsedge (Cyperus rotundus), redroot pigweed (Amaranthus retroflexus), soybean (Glycine max), surinam grass (Brachiaria decumbens), velvetleaf (Abutilon theophrasti) and wild poinsettia (Euphorbia heterophylla).
# (§7) Treated plants and untreated controls were maintained in a greenhouse for approximately 14, to 21 days, after which all treated plants were compared to untreated controls and visually evaluated. Plant response ratings, summarized in Table C, were based upon a 0 to 100 scale where 0 was no effect and 100 was complete control. A dash response (−) means no test result.
# large crabgrass = assay: Test C postemergence large crabgrass; type: in vivo, Digitaria sanguinalis; settings: 0 to 100 scale, 0 no effect, 100 complete control
# Procedure, shortened: as §5
# cocklebur = assay: Test C postemergence cocklebur; type: in vivo, Xanthium strumarium; settings: 0 to 100 scale, 0 no effect, 100 complete control
# Experimental: as §2, with “grown for various periods of time before treatment” for “in the 1- to 4-leaf stage”
# as §6, §7
# [3] = Rate 125 g/ha, 0 to 100 scale (0 no effect, 100 complete control)
# [4] = Rate 500 g/ha, 0 to 100 scale where 0 is no effect and 100 is complete control
# [5] = Rate 250 g/ha, 0 to 100 scale (0 no effect, 100 complete control)
# [6] = Rate 500 g/ha, 0 to 100 scale, 0 no effect, 100 complete control
# [7] = Rate 500 g/ha, 0 no effect, 100 complete control
# [8] = Rate 250 g/ha, 0 to 100 scale where 0 is no effect and 100 is complete control
compound,measurement,setting,value
CC(C)N(C(=O)n1oc(=O)n(C(C)C)c1=O)c1ccc(Cl)cc1 [Compound 114],"Plant response rating, Redroot pigweed",redroot pigweed [1]; [3],50
same,"Plant response rating, Redroot pigweed","redroot pigweed [1]; Rate 250 g/ha, 0 to 100 scale",65
same,"Plant response rating, Redroot pigweed",redroot pigweed [1]; [4],100
same,"Plant response rating, Redroot pigweed","redroot pigweed [2]; Rate 125 g/ha, 0 to 100 scale",15
same,"Plant response rating, Redroot pigweed",redroot pigweed [2]; [5],10
same,"Plant response rating, Redroot pigweed",redroot pigweed [2]; [6],20
same,"Plant response rating, Wild mustard",wild mustard; [3],50
same,"Plant response rating, Wild mustard","wild mustard; Rate 250 g/ha, 0 to 100 scale",40
same,"Plant response rating, Wild mustard",wild mustard; [4],90
same,"Plant response rating, Downy brome",downy brome; Rate 125 g/ha,0
same,"Plant response rating, Downy brortie",downy brome; [5],0
same,"Plant response rating, Downy brome",downy brome; [7],30
same,"Plant response rating, Green foxtail","green foxtail; Rate 125 g/ha, 0 to 100 scale",20
same,"Plant response rating, Green foxtail",green foxtail; [5],50
same,"Plant response rating, Green foxtail",green foxtail; [6],90
same,"Plant response rating, Russian thistle","Russian thistle; Rate 125 g/ha, 0 to 100 scale",0
same,"Plant response rating, Russian thistle",Russian thistle; [5],0
same,"Plant response rating, Russian thistle",Russian thistle; [6],0
same,"Plant response rating, Wild oat","wild oat; Rate 125 g/ha, 0 to 100 scale",0
same,"Plant response rating, Wild oat",wild oat; [5],0
same,"Plant response rating, Wild oat",wild oat; [6],0
same,"Plant response rating, I. Ryegrass","Italian ryegrass; Rate 125 g/ha, 0 to 100 scale",10
same,"Plant response rating, I. Ryegrass",Italian ryegrass; [5],20
same,"Plant response rating, I. Ryegrass",Italian ryegrass; [6],20
same,"Plant response rating, Galium",galium; [3],100
same,"Plant response rating, Galium","galium; Rate 250 g/ha, 0 to 100 scale",60
same,"Plant response rating, Galium",galium; [4],70
same,"Plant response rating, Lambsquarters",lambsquarters; [3],50
same,"Plant response rating, Lambsquarters","lambsquarters; Rate 250 g/ha, 0 to 100 scale",100
same,"Plant response rating, Lambsquarters",lambsquarters; [4],100
same,"Plant response rating, Kochia",kochia; [3],25
same,"Plant response rating, Kochia","kochia; Rate 250 g/ha, 0 to 100 scale",30
same,"Plant response rating, Kochia",kochia; [4],30
same,"Plant response rating, Spring Wheat",spring wheat; [3],0
same,"Plant response rating, Spring Wheat","spring wheat; Rate 250 g/ha, 0 to 100 scale",10
same,"Plant response rating, Spring Wheat",spring wheat; [4],20
same,"Plant response rating, LS canarygrass","littleseed canarygrass; Rate 125 g/ha, 0 to 100 scale",0
same,"Plant response rating, LS canarygrass",littleseed canarygrass; [5],30
same,"Plant response rating, LS canarygrass",littleseed canarygrass; [6],60
CCn1c(=O)on(C(=O)N(c2ccccc2)C(C)C)c1=O [Compound 117],Plant response rating H. beggarticks,hairy beggarticks; Rate 1120 g/ha,0
same,Plant response rating Wild poinsettia,wild poinsettia; Rate 140 g/ha,0
same,Plant response rating Wild poinsettia,wild poinsettia; Rate 280 g/ha,0
same,Plant response rating Wild poinsettia,wild poinsettia; Rate 560 g/ha,0
same,Plant response rating Wild poinsettia,wild poinsettia; Rate 1120 g/ha,0
same,Plant response rating Large crabgrass,large crabgrass; Rate 140 g/ha,0
same,Plant response rating Large crabgrass,large crabgrass; Rate 280 g/ha,20
same,Plant response rating Large crabgrass,large crabgrass; Rate 560 g/ha,60
same,Plant response rating Large crabgrass,large crabgrass; Rate 1120 g/ha,80
same,"Plant response rating, Cocklebur",cocklebur; Rate 140 g/ha,0
same,"Plant response rating, Cocklebur",cocklebur; Rate 280 g/ha,0
same,"Plant response rating, Cocklebur",cocklebur; Rate 560 g/ha,0
same,"Plant response rating, Cocklebur",cocklebur; Rate 1120 g/ha,0
CC(C)N(C(=O)n1oc(=O)n(C(C)C)c1=O)c1ccc(F)cc1 [Compound 131],Plant response rating H. beggarticks,hairy beggarticks; Rate 140 g/ha,0
same,Plant response rating H. beggarticks,hairy beggarticks; Rate 560 g/ha,40
same,Plant response rating H. beggarticks,hairy beggarticks; Rate 1120 g/ha,70
same,"Plant response rating, Redroot pigweed",redroot pigweed [1]; [3],100
same,Redroot pigweed plant response rating (0 to 100 scale),redroot pigweed [1]; Rate 250 g/ha,100
same,"Plant response rating, Redroot pigweed",redroot pigweed [1]; [4],95
same,"Plant response rating, Redroot pigweed","redroot pigweed [2]; Rate 62 g/ha, 0 to 100 scale",5
same,"Plant response rating, Redroot pigweed","redroot pigweed [2]; Rate 125 g/ha, 0 to 100 scale",0
same,"Plant response rating, Redroot pigweed",redroot pigweed [2]; [6],0
same,Redroot pigweed plant response rating,redroot pigweed [2]; [8],0
same,"Plant response rating, Wild mustard",wild mustard; [3],60
same,Wild mustard plant response rating (0 to 100 scale),wild mustard; Rate 250 g/ha,100
same,"Plant response rating, Wild mustard",wild mustard; [4],100
same,"Plant response rating, Downy brome",downy brome; Rate 62 g/ha,55
same,"Plant response rating, Downy brome",downy brome; Rate 125 g/ha,0
same,"Plant response rating, Downy brome",downy brome; [7],70
same,Downy brome plant response rating,downy brome; [8],50
same,"Plant response rating, Green foxtail","green foxtail; Rate 62 g/ha, 0 to 100 scale",55
same,"Plant response rating, Green foxtail","green foxtail; Rate 125 g/ha, 0 to 100 scale",70
same,"Plant response rating, Green foxtail",green foxtail; [6],75
same,Green foxtail plant response rating,green foxtail; [8],50
same,Plant response rating Wild poinsettia,wild poinsettia; Rate 140 g/ha,0
same,Plant response rating Wild poinsettia,wild poinsettia; Rate 280 g/ha,10
same,Plant response rating Wild poinsettia,wild poinsettia; Rate 560 g/ha,30
same,Plant response rating Wild poinsettia,wild poinsettia; Rate 1120 g/ha,80
same,"Plant response rating, Russian thistle","Russian thistle; Rate 62 g/ha, 0 to 100 scale",10
same,"Plant response rating, Russian thistle","Russian thistle; Rate 125 g/ha, 0 to 100 scale",0
same,"Plant response rating, Russian thistle",Russian thistle; [6],0
same,Russian thistle plant response rating,Russian thistle; [8],0
same,Plant response rating Large crabgrass,large crabgrass; Rate 140 g/ha,0
same,Plant response rating Large crabgrass,large crabgrass; Rate 280 g/ha,20
same,Plant response rating Large crabgrass,large crabgrass; Rate 560 g/ha,70
same,Plant response rating Large crabgrass,large crabgrass; Rate 1120 g/ha,85
same,"Plant response rating, Wild oat","wild oat; Rate 62 g/ha, 0 to 100 scale",40
same,"Plant response rating, Wild oat","wild oat; Rate 125 g/ha, 0 to 100 scale",0
same,"Plant response rating, Wild oat",wild oat; [6],70
same,Wild oat plant response rating,wild oat; [8],20
same,"Plant response rating, I. Ryegrass","Italian ryegrass; Rate 62 g/ha, 0 to 100 scale",50
same,"Plant response rating, I. Ryegrass","Italian ryegrass; Rate 125 g/ha, 0 to 100 scale",0
same,"Plant response rating, I. Ryegrass",Italian ryegrass; [6],40
same,I. Ryegrass plant response rating,Italian ryegrass; [8],30
same,"Plant response rating, Cocklebur",cocklebur; Rate 140 g/ha,0
same,"Plant response rating, Cocklebur",cocklebur; Rate 280 g/ha,0
same,"Plant response rating, Cocklebur",cocklebur; Rate 560 g/ha,0
same,"Plant response rating, Cocklebur",cocklebur; Rate 1120 g/ha,10
same,"Plant response rating, Galium",galium; [3],60
same,Galium plant response rating (0 to 100 scale),galium; Rate 250 g/ha,50
same,"Plant response rating, Galium",galium; [4],100
same,"Plant response rating, Lambsquarters",lambsquarters; [3],100
same,Lambsquarters plant response rating (0 to 100 scale),lambsquarters; Rate 250 g/ha,100
same,"Plant response rating, Lambsquarters",lambsquarters; [4],100
same,"Plant response rating, Kochia",kochia; [3],0
same,Kochia plant response rating (0 to 100 scale),kochia; Rate 250 g/ha,10
same,"Plant response rating, Kochia",kochia; [4],100
same,"Plant response rating, Spring Wheat",spring wheat; [3],70
same,Spring Wheat plant response rating (0 to 100 scale),spring wheat; Rate 250 g/ha,100
same,"Plant response rating, Spring Wheat",spring wheat; [4],100
same,"Plant response rating, LS canarygrass","littleseed canarygrass; Rate 62 g/ha, 0 to 100 scale",50
same,"Plant response rating, LS canarygrass","littleseed canarygrass; Rate 125 g/ha, 0 to 100 scale",0
same,"Plant response rating, LS canarygrass",littleseed canarygrass; [6],50
same,LS canarygrass plant response rating,littleseed canarygrass; [8],20
